The text below walks through data of US9757368B2, “Anti-inflammatory agents” (Resverlogix Corp., priority 2009, dated 2017).

The subject of test [1] is hIL-6 mRNA. In words: Quantification of hIL-6 mRNA in LPS-stimulated U937 macrophages (real-time PCR). The class given is cell-based, human. Also noted: key: Active: an active compound is one that causes a ≧20% inhibition in IL-6 mRNA at a concentration less than or equal to 10 μM. The settings on record: U937 cells differentiated with PMA, 1 h pretreatment, LPS 1 μg/mL, 3 h; IL-6 mRNA normalised to hCyclophilin; compound ≤10 μM. The method, then: In this example, hIL-6 mRNA in tissue culture cells was quantitated to measure the transcriptional inhibition of hIL-6 when treated with a compound of the invention.
A human leukemic monocytic lymphoma cell line (U937) was plated (3.2×10^5 cells per well) in a 96-well plate in 100 μL RPMI 1640+10% FBS, and differentiated into macrophages with PMA (60 ng/mL) for 3 days prior to the addition of the compound of interest. The cells were pretreated for 1 h with the test compound in DMSO prior to stimulation with lipopolysaccharide from Escherichia coli at 1 μg/mL. The cells were incubated for 3 h before harvest. At the time of harvest, cells were rinsed in 200 μL PBS. Cell lysis solution (70 μL) was added the cells for 10 min, and mRNA was then prepared using the “mRNA Catcher PLUS plate” (Invitrogen), according to the protocol supplied.
The eluted mRNA isolated was then used in a one-step quantitative real-time PCR reaction, using components of the UltraSense kit together with Applied Biosystems primer-probe mixes. 10 μL of template was amplified with 1.75 μL of IL-6 primer-probe, and 1 μL of hCyclophilin primer probe, and the reaction was carried out in multiplex. Real-time PCR data was analyzed, normalizing the Ct values for hIL-6 to hCyclophilin, prior to determining the fold induction of each unknown sample, relative to the control.
A general note: Quantitative PCR measures a nucleic acid by following its amplification.

Test [2] deals with hVCAM-1 mRNA. In words: Quantification of hVCAM-1 mRNA in TNF-α-stimulated HUV-EC-C cells (real-time PCR). The class given is cell-based, human. Details: key: Active: an active compound is one that causes a ≧20% inhibition in VCAM-1 mRNA at a concentration less than or equal to 10 μM. The following applies: 1 h pretreatment, TNF-α 10 ng/mL, 24 h, VCAM-1 mRNA normalised to hCyclophilin, compound ≤10 μM. The method, then:
In this example, hVCAM-1 mRNA in tissue culture cells was quantitated to measure the transcriptional inhibition of hVCAM when treated with a compound of the invention.
A human umbilical vein endothelial cell line (HUV-EC-C) was plated in a 96-well plate (5.0×10^3 cells/well) in 100 μL EGM complete media and incubated for 24 h prior to the addition of the compound of interest. The cells were pretreated for 1 h with the test compound in DMSO prior to stimulation with tumor necrosis factor-α (10 ng/mL). The cells were incubated for an additional 24 h before harvest. At time of harvest, the cells were rinsed in 200 μL PBS, and cell lysis solution (70 μL) was then added the cells for 10 min. mRNA was then prepared using the “mRNA Catcher PLUS plate” (Invitrogen), according to the protocol supplied.
The eluted mRNA was then used in a one-step quantitative real-time PCR reaction, using components of the UltraSense kit together with Applied Biosystems primer-probe mixes. 10 μL of template was amplified with 1.75 μL of hVCAM-1 primer-probe, and 1 μL of hCyclophilin primer probe, and the reaction was carried out in multiplex. Real-time PCR data was analyzed, normalizing the Ct values for hVCAM-1 to hCyclophilin, prior to determining the fold induction of each unknown sample, relative to the control.

On to `COc1cc(OC)c2c(=O)[nH]c(-c3cc(C)c(CNC(C)=O)c(C)c3)nc2n1` [Example 39, N-[4-(5,7-dimethoxy-4-oxo-3,4-dihydro-pyrido[2,3-d]pyrimidin-2-yl)-2,6-dimethyl-benzyl]-acetamide], for which the “Inhibition of IL-6 expression” value in test [1] was “Active”. In test [2], the “Inhibition of VCAM-1 expression” value is given as “Active”.
Consider `COc1cc(OC)c2c(=O)[nH]c(-c3cc(C)c(OCCNCC(F)(F)F)c(C)c3)nc2c1` [Example 40, 2-{3,5-dimethyl-4-[2-(2,2,2-trifluoro-ethylamino)-ethoxy]-phenyl}-5,7-dimethoxy-3H-quinazolin-4-one], for which the “Inhibition of IL-6 expression” value in test [1] is listed as “Active”. For the same compound, the “Inhibition of VCAM-1 expression” value in test [2] is reported as “Active”.
For `CNCCOc1c(C)cc(-c2nc3cc(OC)cc(OC)c3c(=O)[nH]2)cc1C` [Example 42, 2-(3,5-dimethyl-4-(2-(methylamino)ethoxy)phenyl)-5,7-dimethoxyquinazolin-4(3H)-one], the “Inhibition of IL-6 expression” value in test [1] is given as “Active”. Besides, the “Inhibition of VCAM-1 expression” value in test [2] is on record as “Active”.
As to `COc1cc(OC)c2c(=O)[nH]c(-c3cc(C)c(OCCNC(C)C)c(C)c3)nc2c1` [Example 44, 2-(4-(2-(isopropylamino)ethoxy)-3,5-dimethylphenyl)-5,7-dimethoxyquinazolin-4(3H)-one], in test [1], the “Inhibition of IL-6 expression” value is reported as “Active”. The “Inhibition of VCAM-1 expression” value in test [2] was “Active”.
On to `COc1cc(OC)c2c(=O)[nH]c(-c3cc(C)c(OCCN(C)C(C)=O)c(C)c3)nc2c1` [Example 47, N-(2-(4-(5,7-dimethoxy-4-oxo-3,4-dihydroquinazolin-2-yl)-2,6-dimethylphenoxy)ethyl)-N-methylacetamide], for which the “Inhibition of IL-6 expression” value in test [1] is “Active”. The “Inhibition of VCAM-1 expression” value in test [2] is “Active”.
For the compound `COc1cc(OC)c2c(=O)[nH]c(-c3cc(C)c(OCCNC#N)c(C)c3)nc2c1` [Example 51, N-(2-(4-(5,7-dimethoxy-4-oxo-3,4-dihydroquinazolin-2-yl)-2,6-dimethylphenoxy)ethyl)cyanamide], in test [1], the “Inhibition of IL-6 expression” value is on record as “Active”. Further, the “Inhibition of VCAM-1 expression” value in test [2] was “Active”.
For the compound `COc1cc(OC)c2c(=O)[nH]c(-c3ccc4cc(CCO)[nH]c4c3)nc2c1` [Example 58, 2-[2-(2-hydroxyethyl)-1H-indol-6-yl]-5,7-dimethoxy-3H-quinazolin-4-one], in test [1], the “Inhibition of IL-6 expression” value was “Active”. Moreover, the “Inhibition of VCAM-1 expression” value in test [2] was “Active”.
